Results as given in patent US12404279B2, “Deubiquitinase inhibitors and methods of use thereof” (Molecure S.A., priority 2021, dated 2025).
Structures can show the parent of a compound that is named as a salt. Where two headings read alike, the source gives them in different places.

Biological target: full-length USP7 (Homo sapiens (Human), UniProt Q93009)
Experiment: Enzymatic assay to determine IC50 of USP7 inhibitors (Ubiquitin-Rhodamine 110 cleavage)
Assay type: biochemical
Conditions: for IC50: 0.5 nM USP7, 0.5 μM Ubiquitin-Rhodamine 110, 45 min at 37° C.; for inhibition at 1 µM: read-out: percent value of inhibition of USP7 activity
Outline: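 Full-length USP7 (0.5 nM) in 50 mM HEPES pH 7.5, 150 mM NaCl, 1 mM DTT, 1 mg/ml BSA, 0.05% Tween20 was preincubated 15 min with DTT at room temperature before compound addition.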

[1] = at 1 μM of the test compound, given where IC50 not determined yet

Sequence of full-length USP7 (Q93009 whole entry): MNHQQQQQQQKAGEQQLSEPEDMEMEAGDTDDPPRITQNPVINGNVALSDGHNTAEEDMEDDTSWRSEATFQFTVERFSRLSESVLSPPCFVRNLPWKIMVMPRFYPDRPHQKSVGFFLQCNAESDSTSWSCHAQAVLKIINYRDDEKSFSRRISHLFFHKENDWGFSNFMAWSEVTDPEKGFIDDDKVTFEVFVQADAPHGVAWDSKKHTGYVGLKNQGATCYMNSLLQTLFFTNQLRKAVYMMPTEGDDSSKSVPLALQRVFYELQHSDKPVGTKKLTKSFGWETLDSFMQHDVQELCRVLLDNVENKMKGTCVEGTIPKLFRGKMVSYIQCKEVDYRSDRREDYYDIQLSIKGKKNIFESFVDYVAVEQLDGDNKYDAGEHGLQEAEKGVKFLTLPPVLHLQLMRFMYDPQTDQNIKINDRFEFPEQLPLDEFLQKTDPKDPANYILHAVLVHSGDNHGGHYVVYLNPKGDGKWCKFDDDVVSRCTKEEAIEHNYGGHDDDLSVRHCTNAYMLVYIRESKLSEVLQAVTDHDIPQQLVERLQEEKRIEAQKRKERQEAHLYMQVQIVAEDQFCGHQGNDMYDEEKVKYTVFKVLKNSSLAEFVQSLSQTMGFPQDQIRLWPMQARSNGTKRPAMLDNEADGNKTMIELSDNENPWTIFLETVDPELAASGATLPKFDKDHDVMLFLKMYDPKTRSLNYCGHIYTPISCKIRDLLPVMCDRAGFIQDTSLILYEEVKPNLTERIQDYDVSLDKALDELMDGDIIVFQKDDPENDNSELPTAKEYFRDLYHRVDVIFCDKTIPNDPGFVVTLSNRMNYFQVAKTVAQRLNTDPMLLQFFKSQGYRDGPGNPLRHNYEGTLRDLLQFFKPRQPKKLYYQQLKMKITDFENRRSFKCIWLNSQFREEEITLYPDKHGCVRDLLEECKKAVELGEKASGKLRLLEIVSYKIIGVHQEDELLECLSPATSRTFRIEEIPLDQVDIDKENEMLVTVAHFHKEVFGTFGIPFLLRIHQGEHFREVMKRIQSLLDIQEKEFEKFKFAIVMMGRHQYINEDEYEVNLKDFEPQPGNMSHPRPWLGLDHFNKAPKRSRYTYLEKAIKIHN

SMILES | IC50 [µM] | other results
Cc1cc(C(F)(F)F)nc(-c2ccnc3cc(CN4C(=O)C5C(C4=O)C5(C)C)sc23)c1C(=O)N1CC[C@H](CF)C1 (stereo partly drawn) [Example 105, 3-((7-(3-((S)-3-(fluoromethyl)pyrrolidine-1-carbonyl)-4-methyl-6-(trifluoromethyl)pyridin-2-yl)thieno[3,2-b]pyridin-2-yl)methyl)-6,6-dimethyl-3-azabicyclo[3.1.0]hexane-2,4-dione hydrochloride] | < 0.5 | 
Cc1nc(C#N)cc(-c2ccnc3cc(CN4C(=O)C5C(C4=O)C5(C)C)sc23)c1C(=O)N1CCC(F)(F)C1 (stereo not drawn) [Example 10, 5-(3,3-difluoropyrrolidine-1-carbonyl)-4-(2-((6,6-dimethyl-2,4-dioxo-3-azabicyclo[3.1.0]hexan-3-yl)methyl)thieno[3,2-b]pyridin-7-yl)-6-methylpicolinonitrile 2,2,2-trifluoroacetate] | 1 to 10 | 
Cc1cc(C(F)(F)F)nc(-c2ccnc3cc(CN4C(=O)C5C(C4=O)C5(C)C)sc23)c1C(=O)N1C[C@@H]2CCN[C@@H]2C1 (stereo partly drawn) [Example 163, 6,6-dimethyl-3-((7-(4-methyl-3-((3aS,6aS)-octahydropyrrolo[3,4-b]pyrrole-5-carbonyl)-6-(trifluoromethyl)pyridin-2-yl)thieno[3,2-b]pyridin-2-yl)methyl)-3-azabicyclo[3.1.0]hexane-2,4-dione hydrochloride] | 0.5 to 1 | 
Cc1cc(C(F)(F)F)nc(-c2ccnc3cc(CN4C(=O)C5C(C4=O)C5(C)C)sc23)c1C(=O)N1C[C@@H](C)[C@H](N)C1 (stereo partly drawn) [Example 107, 3-((7-(3-((3S,4R)-3-amino-4-methylpyrrolidine-1-carbonyl)-4-methyl-6-(trifluoromethyl)pyridin-2-yl)thieno[3,2-b]pyridin-2-yl)methyl)-6,6-dimethyl-3-azabicyclo[3.1.0]hexane-2,4-dione hydrochloride] | < 0.5 | 
Cc1cc(C#N)nc(-c2ccnc3cc(CN4C(=O)C5C(C4=O)C5(C)C)sc23)c1C(=O)N1CCC(F)(F)C1 (stereo not drawn) [Example 59, 5-(3,3-difluoropyrrolidine-1-carbonyl)-6-(2-((6,6-dimethyl-2,4-dioxo-3-azabicyclo[3.1.0]hexan-3-yl)methyl)thieno[3,2-b]pyridin-7-yl)-4-methylpicolinonitrile hydrochloride] | < 0.5 | 
CC1(C)C2C(=O)N(Cc3cc4nccc(-c5cccn5CC5CNCCO5)c4s3)C(=O)C21 (stereo not drawn) [Example 9, 6,6-dimethyl-3-((7-(1-(morpholin-2-ylmethyl)-1H-pyrrol-2-yl)thieno[3,2-b]pyridin-2-yl)methyl)-3-azabicyclo[3.1.0]hexane-2,4-dione 2,2,2-trifluoroacetate] |  | inhibition at 1 µM: < 20%
Cc1cc(Cl)cc(-c2ccnc3c2nc(C)n3C)c1O[C@H]1CCCNC1 [Example 68, (S)-7-(5-chloro-3-methyl-2-(piperidin-3-yloxy)phenyl)-2,3-dimethyl-3H-imidazo[4,5-b]pyridine hydrochloride] |  | inhibition at 1 µM [1]: < 20%
Cc1c(Cl)cc(-c2ccnc3cc(CN4C(=O)C5C(C4=O)C5(C)C)sc23)n1C[C@@H]1CNCCO1 (stereo partly drawn) [Example 162, 3-((7-(4-chloro-5-methyl-1-(((S)-morpholin-2-yl)methyl)-1H-pyrrol-2-yl)thieno[3,2-b]pyridin-2-yl)methyl)-6,6-dimethyl-3-azabicyclo[3.1.0]hexane-2,4-dione hydrochloride] | < 0.5 | 
Cc1cc(C)c(NC2CCNC2)c(-c2ccnc3cc(CN4C(=O)C5C(C4=O)C5(C)C)sc23)n1 (racemic) [Example 124, 3-((7-(4,6-dimethyl-3-(pyrrolidin-3-ylamino)pyridin-2-yl)thieno[3,2-b]pyridin-2-yl)methyl)-6,6-dimethyl-3-azabicyclo[3.1.0]hexane-2,4-dione 2,2,2-trifluoroacetate] | < 0.5 | 
Cc1cc(C(F)(F)F)nc(-c2ccnc3cc(CN4C(=O)C5C(C4=O)C5(C)C)sc23)c1C(=O)N1CCC(CNC(C)C)C1 (racemic) [Example 140, 3-((7-(3-(3-((isopropylamino)methyl)pyrrolidine-1-carbonyl)-4-methyl-6-(trifluoromethyl)pyridin-2-yl)thieno[3,2-b]pyridin-2-yl)methyl)-6,6-dimethyl-3-azabicyclo[3.1.0]hexane-2,4-dione trihydrochloride] | < 0.5 | 
Cc1cc(C(F)(F)F)nc(-c2ccnc3cc(CN4C(=O)C5C(C4=O)C5(C)C)sc23)c1CC1NC(=O)CNC1=O (stereo not drawn) [Example 37, 3-((7-(3-((3,6-dioxopiperazin-2-yl)methyl)-4-methyl-6-(trifluoromethyl)pyridin-2-yl)thieno[3,2-b]pyridin-2-yl)methyl)-6,6-dimethyl-3-azabicyclo[3.1.0]hexane-2,4-dione hydrochloride] |  | inhibition at 1 µM [1]: < 20%
Cc1nc(C(F)(F)F)cc(-c2ccnc3cc(CN4C(=O)C5C(C4=O)C5(C)C)sc23)c1O[C@H]1CCCNC1 (stereo partly drawn) [Example 23, 6,6-dimethyl-3-((7-(2-methyl-3-(((S)-piperidin-3-yl)oxy)-6-(trifluoromethyl)pyridin-4-yl)thieno[3,2-b]pyridin-2-yl)methyl)-3-azabicyclo[3.1.0]hexane-2,4-dione 2,2,2-trifluoroacetate] | < 0.5 | 
Cc1ccnc(-c2ccnc3cc(CN4C(=O)C5C(C4=O)C5(C)C)sc23)c1C(=O)N1CCC(F)(F)C1 (stereo not drawn) [Example 49, 3-((7-(3-(3,3-difluoropyrrolidine-1-carbonyl)-4-methylpyridin-2-yl)thieno[3,2-b]pyridin-2-yl)methyl)-6,6-dimethyl-3-azabicyclo[3.1.0]hexane-2,4-dione hydrochloride] |  | inhibition at 1 µM [1]: < 20%
Cc1cc(C(F)(F)F)nc(-c2ccnc3cc(CN4C(=O)C5C(C4=O)C5(C)C)sc23)c1C[C@@H]1CNCCO1 (stereo partly drawn) [Example 96, 6,6-dimethyl-3-((7-(4-methyl-3-(((R)-morpholin-2-yl)methyl)-6-(trifluoromethyl)pyridin-2-yl)thieno[3,2-b]pyridin-2-yl)methyl)-3-azabicyclo[3.1.0]hexane-2,4-dione dihydrochloride] | < 0.5 | 
CC1(C)C2C(=O)N(Cc3cc4nccc(-c5cc(C(F)(F)F)cnc5C[C@@H]5CNCCO5)c4s3)C(=O)C21 (stereo partly drawn) [Example 99, 6,6-dimethyl-3-((7-(2-(((R)-morpholin-2-yl)methyl)-5-(trifluoromethyl)pyridin-3-yl)thieno[3,2-b]pyridin-2-yl)methyl)-3-azabicyclo[3.1.0]hexane-2,4-dione 2,2,2-trifluoroacetate] | < 0.5 | 
Cc1cc(Cl)cc(-c2ccnc3sccc23)c1O[C@H]1CCCNC1 [Example 31, (S)-4-(5-chloro-3-methyl-2-(piperidin-3-yloxy)phenyl)thieno[2,3-b]pyridine 2,2,2-trifluoroacetate] | 1 to 10 | 
Cc1cc(C)c(NC(=O)C2CCNCC2)c(-c2ccnc3cc(CN4C(=O)C5C(C4=O)C5(C)C)sc23)n1 (stereo not drawn) [Example 134, N-(2-(2-((6,6-dimethyl-2,4-dioxo-3-azabicyclo[3.1.0]hexan-3-yl)methyl)thieno[3,2-b]pyridin-7-yl)-4,6-dimethylpyridin-3-yl)piperidine-4-carboxamide 2,2,2-trifluoroacetate] |  | inhibition at 1 µM: < 20%
Cc1cc(C(F)(F)F)nc(-c2ccnc3cc(CN4C(=O)C5C(C4=O)C5(C)C)sc23)c1C[C@H]1CNCCO1 (stereo partly drawn) [Example 95, 6,6-dimethyl-3-((7-(4-methyl-3-(((S)-morpholin-2-yl)methyl)-6-(trifluoromethyl)pyridin-2-yl)thieno[3,2-b]pyridin-2-yl)methyl)-3-azabicyclo[3.1.0]hexane-2,4-dione dihydrochloride] | < 0.5 | 
